Literature values in paper PMC7395068, “The evolution of strategies to minimise the risk of human drug-induced liver injury (DILI) in drug discovery and development” (Archives of Toxicology, 2020).
Where two headings read alike, the source gives them in different places. *1 amine or outer side, *2 acyl side, *3 side chain or, on linkers, in order; H or OH if unused. Where a SMILES comes first, the peptide text is derived from it. Bridges are numbered along the chain shown (N, C = ends). Roman numbers before positions name the chains, in order. [ ]: non-standard residue; d: D form. Actinocin(9to1) = Cc1c2oc3c(C)ccc(C(=O)[*:1])c3nc-2c(C(=O)[*:2])c(N)c1=O; NMeV = CN[C@H](C(=O)O)C(C)C; Sar = CNCC(=O)O

Columns and labels:
[1] = cited from earlier work
[2] = cited from earlier work; remark: listed apart in the source
[3] = assignment in O'Brien 2006, ref O'Brien 2006

Compound | In vivo DILI ([1]; in vivo) | In vivo DILI ([1]; […]) | DILI +VE (5-8), DILI -VE (-4) ([2]; ref Chen 2016) | DILI severity category ([2]; ref Chen 2016) | also measured
Cc1c2oc3c(C)ccc(C(=O)N[C@@H]4C(=O)N[C@H](C(C)C)C(=O)N5CCC[C@H]5C(=O)N(C)CC(=O)N(C)[C@@H](C(C)C)C(=O)O[C@@H]4C)c3nc-2c(C(=O)N[C@@H]2C(=O)N[C@H](C(C)C)C(=O)N3CCC[C@H]3C(=O)N(C)CC(=O)N(C)[C@@H](C(C)C)C(=O)O[C@@H]2C)c(N)c1=O [dactinomycin] (I: T[dV]P[Sar][NMeV] / II: T[dV]P[Sar][NMeV]; ester I:1-I:C, II:1-II:C; linker I:N-II:N via Actinocin(9to1)) | +VE |  |  |  | DILI +VE (5-8), DILI -VE (-4) ([2]; in vivo): +VE; DILI severity category ([2]; in vivo): vMost-DILI-Concern
CC1(C)NC(=O)N(c2ccc([N+](=O)[O-])c(C(F)(F)F)c2)C1=O [nilutamide] |  | +VE | +VE | vMost-DILI-Concern | 
CC(C)n1c(/C=C/C(O)CC(O)CC(=O)O)c(-c2ccc(F)cc2)c2ccccc21 (stereo not drawn) [fluvastatin] |  |  | +VE | vLess-DILI-Concern | In vivo DILI ([1]; ref O'Brien 2006): -VE; In vivo DILI ([1]; ref Xu 2008): -VE
CC(O)(P(=O)(O)O)P(=O)(O)O [etidronic acid] |  | -VE | -VE | vNo-DILI-Concern | 
CN[C@@H](C)Cc1ccccc1 [methamphetamine] |  | -VE | -VE | vNo-DILI-Concern | 
COc1cc(Cc2cnc(N)nc2N)cc(OC)c1OC [trimethoprim] |  | -VE | +VE | vLess-DILI-Concern | In vivo DILI ([1]; ref Garside 2014): +VE
CC(C)[C@H]1CC[C@H](C(=O)N[C@H](Cc2ccccc2)C(=O)O)CC1 [nateglinide] |  | -VE | -VE | Ambiguous DILI-concern | 
CC1COc2c(N3CCN(C)CC3)c(F)cc3c(=O)c(C(=O)O)cn1c23 (stereo not drawn) [ofloxacin] | +VE |  |  |  | DILI +VE (5-8), DILI -VE (-4) ([2]; in vivo): +VE; DILI severity category ([2]; in vivo): vLess-DILI-Concern
CN(CCOc1ccc(NS(C)(=O)=O)cc1)CCc1ccc(NS(C)(=O)=O)cc1 [dofetilide] | -VE |  |  |  | DILI +VE (5-8), DILI -VE (-4) ([2]; in vivo): -VE; DILI severity category ([2]; in vivo): vNo-DILI-Concern
COc1ccccc1OCC(O)COC(N)=O (stereo not drawn) [methocarbamol] |  | -VE | -VE | Ambiguous DILI-concern | 
O=C(N[C@H](CO)[C@H](O)c1ccc([N+](=O)[O-])cc1)C(Cl)Cl [chloramphenicol] | +VE |  |  |  | DILI +VE (5-8), DILI -VE (-4) ([2]; in vivo): -VE; DILI severity category ([2]; in vivo): vNo-DILI-Concern
Cc1cccc(CN2CCN(C(c3ccccc3)c3ccc(Cl)cc3)CC2)c1 (stereo not drawn) [meclizine] |  | -VE | -VE | vNo-DILI-Concern | 
Cl.N [ammonium chloride] | -VE |  |  |  | DILI +VE (5-8), DILI -VE (-4) ([2]; in vivo): -VE; DILI severity category ([2]; in vivo): vNo-DILI-Concern
CO/N=C(\C(=O)N[C@@H]1C(=O)N2C(C(=O)O)=C(CSc3nc(=O)c(=O)[nH]n3C)CS[C@H]12)c1csc(N)n1 [ceftriaxone] |  | -VE | +VE | vLess-DILI-Concern | 
CC(C)(N)Cc1ccccc1 [phentermine] |  | -VE | +VE | vLess-DILI-Concern | 
C[C@]12CC[C@H]3[C@@H](CCC4=CC(=O)CC[C@@]43C)[C@@H]1CC[C@@H]2O [testosterone] | -VE |  |  |  | DILI +VE (5-8), DILI -VE (-4) ([2]; in vivo): +VE; DILI severity category ([2]; in vivo): vMost-DILI-Concern
COc1ccc2[nH]c([S+]([O-])Cc3ncc(C)c(OC)c3C)nc2c1 (stereo not drawn) [omeprazole] |  | -VE | +VE | vLess-DILI-Concern | 
NC1=NC(=O)C(c2ccccc2)O1 (stereo not drawn) [pemoline] | +VE |  |  |  | DILI +VE (5-8), DILI -VE (-4) ([2]; in vivo): +VE; DILI severity category ([2]; in vivo): vMost-DILI-Concern
CNNCc1ccc(C(=O)NC(C)C)cc1 [procarbazine] | +VE |  |  |  | DILI +VE (5-8), DILI -VE (-4) ([2]; in vivo): +VE; DILI severity category ([2]; in vivo): vLess-DILI-Concern
O=P(O)(O)C(O)(Cc1cccnc1)P(=O)(O)O [risedronate] |  | -VE | -VE | Ambiguous DILI-concern | 
NC(=O)C[S+]([O-])C(c1ccccc1)c1ccccc1 (stereo not drawn) [modafinil] |  | -VE | +VE | vLess-DILI-Concern | 
CCOC(=O)C1(c2ccccc2)CCN(C)CC1 [meperidine] | -VE |  |  |  | DILI +VE (5-8), DILI -VE (-4) ([2]; in vivo): -VE; DILI severity category ([2]; in vivo): vNo-DILI-Concern

Compound | In vivo DILI ([1]; in vivo) | In vivo DILI ([1]; […]) | DILI +VE (5-8), DILI -VE (-4) ([2]; ref Chen 2016) | DILI severity category ([2]; ref Chen 2016) | also measured
COc1cc2nc(N3CCN(C(=O)C4CCCO4)CC3)nc(N)c2cc1OC (stereo not drawn) [terazosin] |  | -VE | -VE | vNo-DILI-Concern | In vivo DILI ([1]; ref Aleo 2019): -VE
O=C1CCc2cc(OCCCCc3nnnn3C3CCCCC3)ccc2N1 [cilostazol] |  | -VE | -VE | Ambiguous DILI-concern | 
C[C@@H](O)[C@H]1C(=O)N2C(C(=O)O)=C(S[C@@H]3CN[C@H](C(=O)N(C)C)C3)[C@H](C)[C@H]12 [meropenem] |  | +VE | +VE | vLess-DILI-Concern | 
C[C@H]1[C@H](NC(=O)/C(=N\OC(C)(C)C(=O)O)c2csc(N)n2)C(=O)N1S(=O)(=O)O [aztreonam] | -VE |  |  |  | DILI +VE (5-8), DILI -VE (-4) ([2]; in vivo): -VE; DILI severity category ([2]; in vivo): Ambiguous DILI-concern
COc1ccc(CN(CCN(C)C)c2ccccn2)cc1 [pyrilamine] |  | -VE |  |  | 
CC/C(=C(/CC)c1ccc(O)cc1)c1ccc(O)cc1 [diethylsilbesterol] | +VE |  |  |  | 
C[N+](C)(C)CC(=O)O.[Cl-] [betaine hcl (acidic)] |  |  |  |  | In vivo DILI [1, 3]: +VE
C=O [formaldehyde] | +VE |  |  |  | 
C[C@]12CC[C@@H]3c4ccc(O)cc4CC[C@H]3[C@@H]1C[C@@H](O)[C@@H]2O [estriol] | -VE |  |  |  | 
O=C(O)CC[N+](=O)[O-] [nitroproprionic acid] |  |  |  |  | In vivo DILI [1, 3]: +VE
CC[C@@]1([C@@H]2O[C@@H]([C@H]3O[C@@](O)(CO)[C@H](C)C[C@@H]3C)C[C@@H]2C)CC[C@H]([C@]2(C)CC[C@]3(C[C@H](O)[C@@H](C)[C@@H]([C@@H](C)[C@@H](OC)[C@H](C)C(=O)O)O3)O2)O1 [monensin] | +VE |  |  |  | 
CCSCC[C@H](N)C(=O)O [ethionine] |  |  |  |  | In vivo DILI [1, 3]: +VE
dichloroethylene |  |  |  |  | In vivo DILI [1, 3]: +VE
O=C(O)CC(=O)O [malonic acid] | +VE |  |  |  | 
Brc1ccccc1 [bromobenzene] |  |  |  |  | In vivo DILI [1, 3]: +VE
Cc1cccc(O)c1 [m-cresol] | +VE |  |  |  | 
N[C@H]1C(O)O[C@H](CO)[C@@H](O)[C@@H]1O (stereo partly drawn) [glucosamine] |  |  |  |  | In vivo DILI [1, 3]: +VE
hemin |  | -VE |  |  | 
Cc1coc2c1CCC(C)C2 (stereo not drawn) [menthofuran] |  | +VE |  |  | 
COc1ccc2c3c1O[C@H]1C(=O)CC[C@H]4[C@@H](C2)N(C)CC[C@]314 [hydrocodone] | -VE |  |  |  | 
C=CCO [ally alcohol] |  |  |  |  | In vivo DILI [1, 3]: +VE
C=CCc1ccc(O)c(OC)c1 [eugenol] | +VE |  |  |  | 
